Measured values published in PubChem BioAssay (NCI).
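Growth conditions: 96-well plates. Treatment: test compound, 48 hours, 5 concentrations. Analysis: linear interpolation between bracketing concentrations; unreached endpoints set to highest concentration. The concentration for full growth arrest is given as TGI.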

Key:
Assay in all cases: NCI anticancer screen, dose series, 48 h
786-0 renal = test system: 786-0 renal
A498 renal = test system: A498 renal
A549 NSCLC = test system: A549 NSCLC
ACHN renal = test system: ACHN renal
CAKI-1 renal = test system: CAKI-1 renal
CCRF-CEM leukemia = test system: CCRF-CEM leukemia
COLO 205 colon = test system: COLO 205 colon
DLD-1 colon = test system: DLD-1 colon
DMS 114 small cell lung = test system: DMS 114 small cell lung
DMS 273 small cell lung = test system: DMS 273 small cell lung
EKVX NSCLC = test system: EKVX NSCLC
HCC-2998 colon = test system: HCC-2998 colon
HCT-116 colon = test system: HCT-116 colon
HCT-15 colon = test system: HCT-15 colon
HL-60(TB) leukemia = test system: HL-60(TB) leukemia
HOP-18 NSCLC = test system: HOP-18 NSCLC
HOP-92 NSCLC = test system: HOP-92 NSCLC
HT29 colon = test system: HT29 colon
IGROV1 ovarian = test system: IGROV1 ovarian
K-562 leukemia = test system: K-562 leukemia
KM12 colon = test system: KM12 colon
LOX IMVI melanoma = test system: LOX IMVI melanoma
LXFL 529 NSCLC = test system: LXFL 529 NSCLC
M14 melanoma = test system: M14 melanoma
M19-MEL melanoma = test system: M19-MEL melanoma
MALME-3M melanoma = test system: MALME-3M melanoma
MOLT-4 leukemia = test system: MOLT-4 leukemia
NCI-H226 lung = test system: NCI-H226 lung
NCI-H23 lung = test system: NCI-H23 lung
NCI-H460 lung = test system: NCI-H460 lung
NCI-H522 lung = test system: NCI-H522 lung
OVCAR-3 ovarian = test system: OVCAR-3 ovarian
OVCAR-8 ovarian = test system: OVCAR-8 ovarian
RPMI-8226 leukemia = test system: RPMI-8226 leukemia
RXF 393 renal = test system: RXF 393 renal
SF-295 CNS = test system: SF-295 CNS
SF-539 CNS = test system: SF-539 CNS
SK-MEL-28 melanoma = test system: SK-MEL-28 melanoma
SK-MEL-5 melanoma = test system: SK-MEL-5 melanoma
SK-OV-3 ovarian = test system: SK-OV-3 ovarian
SN12C renal = test system: SN12C renal
SNB-19 CNS = test system: SNB-19 CNS
SNB-75 CNS = test system: SNB-75 CNS
SNB-78 CNS = test system: SNB-78 CNS
SW-620 colon = test system: SW-620 colon
TK-10 renal = test system: TK-10 renal
U251 CNS = test system: U251 CNS
UACC-257 melanoma = test system: UACC-257 melanoma
UACC-62 melanoma = test system: UACC-62 melanoma
UO-31 renal = test system: UO-31 renal

Measured: TGI

NC(CCc1nc(-c2ccccc2)cs1)C(=O)O (stereo not given)
> 100 µM: 786-0 renal | A498 renal | A549 NSCLC | ACHN renal | CAKI-1 renal | CCRF-CEM leukemia | COLO 205 colon | DLD-1 colon | DMS 114 small cell lung | DMS 273 small cell lung | EKVX NSCLC | HCC-2998 colon | HCT-116 colon | HCT-15 colon | HL-60(TB) leukemia | HOP-18 NSCLC | HOP-92 NSCLC | HT29 colon | IGROV1 ovarian | K-562 leukemia | KM12 colon | LOX IMVI melanoma | LXFL 529 NSCLC | M14 melanoma | M19-MEL melanoma | MALME-3M melanoma | MOLT-4 leukemia | NCI-H226 lung | NCI-H23 lung | NCI-H460 lung | NCI-H522 lung | OVCAR-3 ovarian | OVCAR-8 ovarian | RPMI-8226 leukemia | RXF 393 renal | SF-295 CNS | SF-539 CNS | SK-MEL-28 melanoma | SK-MEL-5 melanoma | SK-OV-3 ovarian | SN12C renal | SNB-19 CNS | SNB-75 CNS | SNB-78 CNS | SW-620 colon | TK-10 renal | U251 CNS | UACC-257 melanoma | UACC-62 melanoma | UO-31 renal
